Test results as given in ChEMBL document CHEMBL2021830, “Chlorinated englerins with selective inhibition of renal cancer cell growth” (2012).

Assays:
Assay type in all cases: functional
SN12C = test: Growth inhibition of human SN12C cells after 48 hrs by SRB assay
786-0 = test: Growth inhibition of human 786-0 cells after 48 hrs by SRB assay
TK-10 = test: Growth inhibition of human TK10 cells after 48 hrs by SRB assay
ACHN = test: Growth inhibition of human ACHN cells after 48 hrs by SRB assay
CAKI-1 = test: Growth inhibition of human CAKI-1 cells after 48 hrs by SRB assay
UO-31 = test: Growth inhibition of human UO31 cells after 48 hrs
A498 = test: Growth inhibition of human A498 cells after 48 hrs
RXF 393 = test: Growth inhibition of human RXF393 cells after 48 hrs by SRB assay

Compound | GI50 (SN12C; Homo sapiens, SN12C, 48 h) | GI50 (786-0; Homo sapiens, 786-0, 48 h) | GI50 (TK-10; Homo sapiens, TK-10, 48 h) | GI50 (ACHN) | GI50 (CAKI-1) | GI50 (UO-31) | GI50 (A498) | GI50 (SN12C) | GI50 (786-0) | GI50 (RXF 393; Homo sapiens, RXF 393, 48 h) | GI50 (ACHN; Homo sapiens, ACHN, 48 h) | GI50 (CAKI-1; Homo sapiens, CAKI-1, 48 h) | GI50 (UO-31; Homo sapiens, UO-31, 48 h) | GI50 (A498; Homo sapiens, A498, 48 h) | GI50 (TK-10) | GI50 (RXF 393)
CC(C)[C@@]12C[C@@H](OC(=O)CO)[C@@](C)(O1)[C@@H]1CC[C@@H](C)[C@H]1[C@@H]2OC(=O)C(Cl)C(Cl)c1ccccc1 (single isomer, unassigned; epimer 1) | 930 nM | 12000 nM | 18000 nM | 140 nM | 420 nM | 390 nM | 140 nM | – | – | – | – | – | – | – | – | –
CC(C)[C@@]12C[C@@H](OC(=O)CO)[C@@](C)(O1)[C@@H]1CC[C@@H](C)[C@H]1[C@@H]2OC(=O)C(Cl)C(O)c1ccccc1 (single isomer, unassigned; epimer 1) | – | – | 17000 nM | 320 nM | 460 nM | 250 nM | 180 nM | 630 nM | 1700 nM | 510 nM | – | – | – | – | – | –
CC(C)[C@@]12C[C@@H](OC(=O)CO)[C@@](C)(O1)[C@@H]1CC[C@@H](C)[C@H]1[C@@H]2OC(=O)/C(Cl)=C/c1ccccc1 | 560 nM | 10000 nM | 21000 nM | – | – | – | – | – | – | 59 nM | 41 nM | 390 nM | 35 nM | 28 nM | – | –
CC(C)[C@@]12C[C@@H](OC(=O)CO)[C@@](C)(O1)[C@@H]1CC[C@@H](C)[C@H]1[C@@H]2OC(=O)C(Cl)C(Cl)c1ccccc1 (single isomer, unassigned; epimer 2) | – | – | – | 49 nM | 160 nM | 160 nM | 67 nM | 1000 nM | – | – | – | – | – | – | 25000 nM | –
CC(C)[C@@]12C[C@@H](OC(=O)CO)[C@@](C)(O1)[C@@H]1CC[C@@H](C)[C@H]1[C@@H]2OC(=O)C(Cl)C(O)c1ccccc1 (single isomer, unassigned) | – | – | – | 1400 nM | 5000 nM | 1900 nM | 660 nM | 4700 nM | 11000 nM | – | – | – | – | – | 27000 nM | 390 nM
